{"source": "patent EP1948196B1", "about": "“USE OF TETRAORGANOSILICON COMPOUNDS” (Salama, Zoser B., priority 2005, dated 2007)", "key": {"Entero-Viren": {"test_system": "Entero-Viren", "test": "Antiviral effect", "details": "in particular as vesicles holding antisense constructs"}, "Lymphome": {"test_system": "Lymphome", "test": "Effect on lymphomas"}, "HIV-Vren": {"test_system": "HIV-Vren", "test": "Antiviral effect", "details": "in particular as vesicles holding antisense constructs"}, "Medulloblastome": {"test_system": "Medulloblastome", "test": "Effect on medulloblastomas"}, "[1]": {"test_system": "Kälber-Aortenendothelzellinie BKEz-7", "test": "tissue or blood", "format": "cell-based"}, "Maus": {"test_system": "Maus", "test": "Pharmacological observation in the mouse (central, vegetative and toxic effects, acute toxicity)", "format": "in vivo", "method_in_brief": "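Mice given single doses of 5·10^-4, 1·10^-3 and 5·10^-3 mol/kg body weight and observed individually. Recorded: orienting lethal dose (oLD), motor activity, reactivity, skin and rectal temperature, and pupil motility.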"}, "[2]": {"test_system": "Kälber-Aortenendothelzellinie BKEz-7", "test": "Neutral red vitality test", "format": "cell-based", "details": "compared with the cytotoxicity test", "method": "Als Marker für eine zytotoxische Wirkung wird bei Zellen der charakterisierten Kälber-Aortenendothelzellinie BKEz-7 die Hemmkonzentration ermittelt, bei der eine 50%-ige Hemmung der Zellproliferation erfolgt (im Vergleich zu Kontrollkulturen ohne Zusatz eines Zellinhibitors). Die resultierende Reduzierung der Zellzahl um 50% wird als IC 50 ausgedrückt. Die getesteten Silanverbindungen wurden als Suspensionen auf die Kulturen gegeben und 48 Stunden bei 37°C inkubiert. Zusätzlich erfolgten morphologische Kontrollen und Vitalitätsbestimmungen mittels dem Neutralrot-Test. Mit Ausnahme des Di(dodecanoyloxy)dimethylsilans standen alle Ergebnisse der morphologischen Untersuchungen in guter Übereinstimmung. […]"}, "Osteosarkome": {"test_system": "Osteosarkome", "test": "Effect on osteosarcomas"}, "Krebszellen": {"test_system": "Krebszellen", "test": "Effect of sugar silanes on cancer cells", "format": "cell-based"}, "Plattenepithelkarzinome": {"test_system": "Plattenepithelkarzinome", "test": "Effect on squamous cell carcinomas"}, "Basalzellkarzinome": {"test_system": "Basalzellkarzinome", "test": "Effect on basal cell carcinomas"}, "Hepatitis A-Viren": {"test_system": "Hepatitis A-Viren", "test": "Antiviral effect", "details": "in particular as vesicles holding antisense constructs"}, "Plasmozyten": {"test_system": "Plasmozyten", "test": "Effect against plasmocytes"}}, "note": "Numbered stars: 1 amine (or outer) side, 2 acyl side, 3 side chain; on linkers, the order of the positions; unused ones are H or OH. Bridge positions count the residues as written; N and C are the ends. Peptide text beside a SMILES is read from it. I, II: the chains in the order shown. OSi(nPr)2O = CCC[Si](CCC)(O[*:1])O[*:2]", "data": [{"smiles": "CCCCCCCC/C=C\\CCCCCCCC(=O)O[Si](OC(=O)CCCCCCC/C=C\\CCCCCCCC)(C(C)C)C(C)C", "values": [{"measurement": "Wirkung gegen Entero-Viren", "setting": "Entero-Viren", "result": "zeigen eine Wirkung"}, {"measurement": "Wirkung auf Lymphome", "setting": "Lymphome", "result": "zeigen eine Wirkung"}, {"measurement": "Wirkung gegen HIV-Vren", "setting": "HIV-Vren", "result": "zeigen eine Wirkung"}, {"measurement": "Wirkung gegen Medulloblastome", "setting": "Medulloblastome", "result": "zeigen eine Wirkung"}]}, {"smiles": "CCCCCCCCCCCC(=O)O[Si](C)(C)OC(=O)CCCCCCCCCCC", "note": "[Di(dodecanoyloxy)dimethylsilan]", "values": [{"measurement": "Bedenkliche Toxizität", "setting": "[1]", "result": "-"}, {"measurement": "IC50", "setting": "[1]; suspensions, 48 Stunden bei 37°C", "result": 129, "unit": "µM"}, {"measurement": "zentrale, vegetative und toxische Effekte (Verhaltensänderungen)", "setting": "Maus; 1•10^-3 mol/kg", "result": "keine Verhaltensänderungen"}, {"measurement": "zentrale, vegetative und toxische Effekte (Verhaltensänderungen)", "setting": "Maus; 5•10^-3 mol/kg", "result": "Ataxie, Ploerektion, Griffstärkesenkung"}, {"measurement": "zentrale, vegetative und toxische Effekte (Verhaltensänderungen)", "setting": "Maus; 5•10^-4 mol/kg", "result": "keine Verhaltensänderungen"}, {"measurement": "Vitalitätsbeeinflussungen im Neutralrot-Test", "setting": "[2]", "result": "geringere Vitalitätsbeeinflussungen als im Zytotoxizitätstest"}, {"measurement": "Wirkung auf Osteosarkome", "setting": "Osteosarkome", "result": "zeigen eine Wirkung"}]}, {"smiles": "CCCCCCCCCCCCCCCCCC[Si](C)(C)O[C@@H]1O[C@H](COC(C)=O)[C@@H](OC(C)=O)[C@H](OC(C)=O)[C@H]1OC(C)=O", "note": "[1-O-Dimethyl(octadecyl)silyl-2,3,4,6-tetr'a-0-acteyl-ß-D-glucopyranosid]", "values": [{"measurement": "Wirkung auf Krebszellen", "setting": "Krebszellen", "result": "zeigen ebenfalls eine Wirkung"}]}, {"smiles": "CCC[Si](CCC)(OC(=O)[C@H](C)NC(=O)[C@H](C)NC(=O)[C@H](C)NC(=O)[C@H](C)N)OC(=O)[C@H](C)NC(=O)[C@H](C)NC(=O)[C@H](C)NC(=O)[C@H](C)N", "note": "[Dipropyl bis(tetraalanyl)silylester] (I: H-AAAA / II: H-AAAA; linker I:C-II:C via OSi(nPr)2O)", "values": [{"measurement": "Wirkung gegen Plattenepithelkarzinome", "setting": "Plattenepithelkarzinome", "result": "zeigen eine Wirkung"}]}, {"smiles": "CCCCCCCCCCCC[Si](C)(C)O[C@@H]1O[C@H](COC(C)=O)[C@@H](OC(C)=O)[C@H](OC(C)=O)[C@H]1OC(C)=O", "note": "[Silan 12, 1-O-Dimethyl(dodecyl)silyl-2,3,4,6-tetra-0-acetyl-ß-D-glucopyrasonid]", "values": [{"measurement": "Wirkung auf Krebszellen", "setting": "Krebszellen", "result": "zeigen ebenfalls eine Wirkung"}]}, {"smiles": "C[Si](C)(OC(=O)[C@H](Cc1ccccc1)NC(=O)[C@H](Cc1ccccc1)NC(=O)[C@H](Cc1ccccc1)NC(=O)[C@H](Cc1ccccc1)NC(=O)[C@@H](N)Cc1ccccc1)OC(=O)[C@H](Cc1ccccc1)NC(=O)[C@H](Cc1ccccc1)NC(=O)[C@H](Cc1ccccc1)NC(=O)[C@H](Cc1ccccc1)NC(=O)[C@@H](N)Cc1ccccc1", "note": "[Dimethyl bis(pentaphenylalanyl)silylester]", "values": [{"measurement": "Wirkung auf Basalzellkarzinome", "setting": "Basalzellkarzinome", "result": "zeigen eine Wirkung"}]}, {"smiles": "CC[Si](CC)(OC(=O)[C@@H](NC(=O)[C@@H](NC(=O)[C@@H](N)C(C)C)C(C)C)C(C)C)OC(=O)[C@@H](NC(=O)[C@@H](NC(=O)[C@@H](N)C(C)C)C(C)C)C(C)C", "note": "[Diethyl bis(trivalyl)silylester]", "values": [{"measurement": "Wirkung auf Seminome", "setting": "Seminome", "result": "zeigen eine Wirkung"}]}, {"smiles": "CCC[Si](CCC)(OC(=O)[C@H](Cc1ccccc1)NC(=O)[C@H](Cc1ccccc1)NC(=O)[C@H](Cc1ccccc1)NC(=O)[C@H](Cc1ccccc1)NC(=O)[C@H](Cc1ccccc1)NC(=O)[C@H](Cc1ccccc1)NC(=O)[C@@H](N)Cc1ccccc1)OC(=O)[C@H](Cc1ccccc1)NC(=O)[C@H](Cc1ccccc1)NC(=O)[C@H](Cc1ccccc1)NC(=O)[C@H](Cc1ccccc1)NC(=O)[C@H](Cc1ccccc1)NC(=O)[C@H](Cc1ccccc1)NC(=O)[C@@H](N)Cc1ccccc1", "note": "[Dipropyl bis(heptaphenylalanyl)silylester] (I: H-FFFFFFF / II: H-FFFFFFF; linker I:C-II:C via OSi(nPr)2O)", "values": [{"measurement": "Wirkung gegen Hepatitis A-Viren", "setting": "Hepatitis A-Viren", "result": "zeigen eine Wirkung"}, {"measurement": "Wirkung gegen Plasmozyten", "setting": "Plasmozyten", "result": "zeigen eine Wirkung"}]}]}
